System: NCI-H196 complex spheroids with HUVEC/MSC, growth % T/C
Experiment: Anticancer human tumor NCI-H196 cell line growth inhibition [Asc];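 also: spheroids exposed to compound for 7 days before measurement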;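 as to viability, T/C: 100% = DMSO vehicle control wells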
Conditions: for IC50: curve of first compound; for viability, T/C: stronger effect = lower value
How it was run: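 Concentration series start at each agent's clinical Cmax, or at 10 microM when none is established, and drop in half-log steps; agents are applied alone or together to complex spheroids built with HUVEC and hMSC.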

## COc1c(OCCCN2CCOCC2)ccc2c3n(c(=NC(=O)c4cnc(N)nc4)nc12)CCN3 + CCN1C(C(=O)NC23CCC(C(=O)O)(CC2)CC3)C(c2cccc(Cl)c2F)C2(C(=O)Nc3cc(Cl)ccc32)C12CCCCC2
Second compound 0.03 µM
  IC50: > 1 µM
Second compound 0.0949 µM
  IC50: > 1 µM
Second compound 0.3 µM
  IC50: > 1 µM
Second compound 0.949 µM
  IC50: > 1 µM
Second compound 3 µM
  IC50: > 1 µM
Second compound 0.03 µM, first compound 0.00316 µM
  viability, T/C: 101%
Second compound 0.03 µM, first compound 0.01 µM
  viability, T/C: 106%
Second compound 0.03 µM, first compound 0.0316 µM
  viability, T/C: 91%
Second compound 0.03 µM, first compound 0.1 µM
  viability, T/C: 77.1%
Second compound 0.03 µM, first compound 0.316 µM
  viability, T/C: 68.8%
Second compound 0.03 µM, first compound 1 µM
  viability, T/C: 52.1%
Second compound 0.0949 µM, first compound 0.00316 µM
  viability, T/C: 117%
Second compound 0.0949 µM, first compound 0.01 µM
  viability, T/C: 99.6%
Second compound 0.0949 µM, first compound 0.0316 µM
  viability, T/C: 98.5%
Second compound 0.0949 µM, first compound 0.1 µM
  viability, T/C: 82.8%
Second compound 0.0949 µM, first compound 0.316 µM
  viability, T/C: 72.7%
Second compound 0.0949 µM, first compound 1 µM
  viability, T/C: 52.2%
Second compound 0.3 µM, first compound 0.00316 µM
  viability, T/C: 110%
Second compound 0.3 µM, first compound 0.01 µM
  viability, T/C: 102%
Second compound 0.3 µM, first compound 0.0316 µM
  viability, T/C: 106%
Second compound 0.3 µM, first compound 0.1 µM
  viability, T/C: 83.1%
Second compound 0.3 µM, first compound 0.316 µM
  viability, T/C: 73.3%
Second compound 0.3 µM, first compound 1 µM
  viability, T/C: 59.7%
Second compound 0.949 µM, first compound 0.00316 µM
  viability, T/C: 103%
Second compound 0.949 µM, first compound 0.01 µM
  viability, T/C: 109%
Second compound 0.949 µM, first compound 0.0316 µM
  viability, T/C: 94.9%
Second compound 0.949 µM, first compound 0.1 µM
  viability, T/C: 85.7%
Second compound 0.949 µM, first compound 0.316 µM
  viability, T/C: 66.9%
Second compound 0.949 µM, first compound 1 µM
  viability, T/C: 57.3%
Second compound 3 µM, first compound 0.00316 µM
  viability, T/C: 113%
Second compound 3 µM, first compound 0.01 µM
  viability, T/C: 106%
Second compound 3 µM, first compound 0.0316 µM
  viability, T/C: 105%
Second compound 3 µM, first compound 0.1 µM
  viability, T/C: 81.2%
Second compound 3 µM, first compound 0.316 µM
  viability, T/C: 73.1%
Second compound 3 µM, first compound 1 µM
  viability, T/C: 54.2%

## C=C(F)C(=O)N1CCN(c2nc(OCC3CCCN3C)nc3c2CCN(c2cccc4cccc(Cl)c24)C3)CC1CC#N (stereo not given) + CNC(C)C(=O)NC1CN(S(=O)(=O)c2cccc(S(=O)(=O)N3CCC4CCC(C(=O)NC(c5ccccc5)c5ccccc5)N4C(=O)C(NC(=O)C(C)NC)C3)c2)CCC2CCC(C(=O)NC(c3ccccc3)c3ccccc3)N2C1=O
Second compound 0.01 µM
  IC50: < 0.0316 µM
Second compound 0.0316 µM
  IC50: < 0.0316 µM
Second compound 0.1 µM
  IC50: < 0.0316 µM
Second compound 0.316 µM
  IC50: < 0.0316 µM
Second compound 1 µM
  IC50: < 0.0316 µM
Second compound 0.01 µM, first compound 0.0316 µM
  viability, T/C: 7.36%
Second compound 0.01 µM, first compound 0.1 µM
  viability, T/C: 8.05%
Second compound 0.01 µM, first compound 0.316 µM
  viability, T/C: 5.8%
Second compound 0.01 µM, first compound 1 µM
  viability, T/C: 3.58%
Second compound 0.01 µM, first compound 3.16 µM
  viability, T/C: 0.83%
Second compound 0.01 µM, first compound 10 µM
  viability, T/C: 0.19%
Second compound 0.0316 µM, first compound 0.0316 µM
  viability, T/C: 3.17%
Second compound 0.0316 µM, first compound 0.1 µM
  viability, T/C: 4.55%
Second compound 0.0316 µM, first compound 0.316 µM
  viability, T/C: 4.1%
Second compound 0.0316 µM, first compound 1 µM
  viability, T/C: 3.88%
Second compound 0.0316 µM, first compound 3.16 µM
  viability, T/C: 0.38%
Second compound 0.0316 µM, first compound 10 µM
  viability, T/C: 0.16%
Second compound 0.1 µM, first compound 0.0316 µM
  viability, T/C: 4.2%
Second compound 0.1 µM, first compound 0.1 µM
  viability, T/C: 5.22%
Second compound 0.1 µM, first compound 0.316 µM
  viability, T/C: 5.23%
Second compound 0.1 µM, first compound 1 µM
  viability, T/C: 3.23%
Second compound 0.1 µM, first compound 3.16 µM
  viability, T/C: 0.27%
Second compound 0.1 µM, first compound 10 µM
  viability, T/C: 0.18%
Second compound 0.316 µM, first compound 0.0316 µM
  viability, T/C: 4.24%
Second compound 0.316 µM, first compound 0.1 µM
  viability, T/C: 3.28%
Second compound 0.316 µM, first compound 0.316 µM
  viability, T/C: 1.71%
Second compound 0.316 µM, first compound 1 µM
  viability, T/C: 2.27%
Second compound 0.316 µM, first compound 3.16 µM
  viability, T/C: 2.27%
Second compound 0.316 µM, first compound 10 µM
  viability, T/C: 0.18%
Second compound 1 µM, first compound 0.0316 µM
  viability, T/C: 3.34%
Second compound 1 µM, first compound 0.1 µM
  viability, T/C: 3.4%
Second compound 1 µM, first compound 0.316 µM
  viability, T/C: 2.52%
Second compound 1 µM, first compound 1 µM
  viability, T/C: 1.53%
Second compound 1 µM, first compound 3.16 µM
  viability, T/C: 0.35%
Second compound 1 µM, first compound 10 µM
  viability, T/C: 0.24%

— PubChem BioAssay AID1963439 (Molecular Pharmacology Branch, DTP, NCI, 2024)
